Assay results as given in patent EP4427759A1, “TRACEABLE CHIMERIC ANTIGEN RECEPTOR CELL” (Eberhard-Karls-Universität Tübingen, priority 2023, dated 2024).

Key:
[1] = one-hour dynamic PET scan, time activity curves of organs; format: in vivo, NOD.CB17-Prkdcscid/J mice
Protocol: (§1) For the xenograft model a one-hour dynamic PET scan was performed. The mice were anaesthetized with isoflurane (initially 5%, then 1.5-2%) and a catheter was placed into the tail vein. The mice were placed onto the scanner bed and the body was centered into the field of view (FOV). Mice were injected with13.6 ± 0.35 MBq of [^18F]biotin3FB on average at the beginning of the PET scan and measured for 1h. Afterwards, MR scans were performed to gain anatomical information using an TurboRare spin-echo sequence. After the scans, the mice were sacrificed, and the organs were collected to quantify radiotracer uptake by ex vivo gamma-counting.
(§2) Reconstruction and analysis of the acquired PET/MR data was performed with Inveon Acquisition Workplace and Inveon Research Workplace (IRW), respectively, using dynamic framing and an ordered subset expectation maximization (OSEM) 3D algorithm. For the second part of the experiment statistic framing was used. Regions of interest (ROIs) were drawn under consideration of the acquired MR images and co-registered with the PET data to obtain time-activity curves (TACs).

Jurkat AdCAR cells = assay: Jurkat model, static PET/MR and ex vivo biodistribution; format: in vivo, mice; conditions: Jurkat AdCAR vs Jurkat CTRL i.p.; day 1, 3 and 7 after cell injection; 1 h resting uptake
Protocol: Five mice were injected with 1 × 10^7 cells/mL Jurkat LucGFP (CTRL), and five additional mice were injected with 1 × 10^7 cells/mL Jurkat aCAR in 200µl PBS into the peritoneal cavity with a 1 mL syringe (30G canula).
For the Jurkat model a ten-minute static PET scan was performed. The mice were anaesthetized with isoflurane (initially 5%, then 1.5-2) and a catheter was placed into the tail vein. The mice were injected with 13.6 ± 0.24 MBq of [^18F]biotin3FB on average and afterwards placed in an isoflurane box for a one-hour resting uptake. After 1 h, the mice were placed onto the scanner bed, the body was centered into the FOV, and a 10 min PET scan was performed. Afterwards, MR scans were performed as described above. The PET and MR measurements took place on day 1, 3 and 7 after cell injection. When the measurements on the 7th day were finished, the mice were sacrificed and uptake in spleen, lymph nodes, muscle and blood were quantified by ex vivo gamma-counting.
(§3) Reconstruction and analysis of the acquired PET/MR data was performed with Inveon Acquisition Workplace and Inveon Research Workplace (IRW), respectively, using dynamic framing and an ordered subset expectation maximization (OSEM) 3D algorithm. For the second part of the experiment statistic framing was used. […]

HCT116 CTRL xenografts = assay: HCT116 control xenograft model, ex vivo biodistribution by gamma-counting; format: in vivo, NOD.CB17-Prkdcscid/J mice; conditions: gamma-counting after 1 h dynamic PET scan, n = 5
Protocol: (§4) For the xenograft model, 5 × 10^6 cells/mL cells were injected. Five NOD.CB17-Prkdcscid/J were injected with HCT116 WT, and five additional mice were injected with HCT116 AdCAR subcutaneously into the right flank in a mixture of 1:1 Matrigel and PBS (200 µL per mouse) with a 1 mL syringe (30G canula). Afterwards the tumors grew for approximately two weeks before PET and MR measurements.
as §1, §3

HCT116 AdCAR xenografts = assay: HCT116 AdCAR xenograft model, PET/MR and ex vivo biodistribution by gamma-counting; format: in vivo, NOD.CB17-Prkdcscid/J mice
Protocol: as §4, §1, §2

[2] = ex vivo biodistribution, xenograft model

## [^18F]biotin3fluorobenzoate [[^18F]biotin3FB]
[1]; brain, mice with HCT116 AdCAR xenografts
  SUVpeak(aCAR), brain TAC: 0.54
[1]; brain, mice with HCT116 CTRL xenografts
  SUVpeak(CTRL), brain TAC: 0.45
[1]; calculated from the heart TAC, i.v. tail vein
  blood half-life: 2.3 min
[1]; [2]
  radiotracer uptake in the brain: Almost no uptake
  radiotracer uptake in the kidney: High radiotracer uptake
Jurkat AdCAR cells
  difference between AdCAR expressing cells and control cells (PET/MR, spleen uptake): no difference
HCT116 CTRL xenografts
  uptake in xenografts, ex vivo biodistribution analysis: 0.73 % ID/g
HCT116 AdCAR xenografts; AdCAR expressing xenografts, gamma-counting after 1 h dynamic PET scan, n = 5
  uptake in xenografts, ex vivo biodistribution analysis: 4.59 % ID/g
HCT116 AdCAR xenografts; P=0.0159, Mann-Whitney test, n = 5 per group
  tumor-to-muscle ratio (TMR), AdCAR xenografts compared to control xenografts: significantly higher
HCT116 AdCAR xenografts; p = 0.0050, unpaired t test, n = 5 per group
  absolute tumor uptake, AdCAR xenografts compared to control xenografts: significantly higher
